{"source": "patent US20060069032A1", "about": "(L'OREAL, priority 2003, published 2006)", "key": {"[1]": {"tested_on": "Calmodulin-like skin protein (CLSP) messenger", "assay": "Calmodulin-like skin protein (CLSP) messenger expression by quantitative RT-PCR in reconstructed epidermis SkinEthic", "assay_type": "cell-based, human", "settings": "0.01 μM, 24 hours", "method": "(§1) The study was carried out on a model of reconstructed epidermis SkinEthic. Upon receiving, the epidermes were precultured for 24 hours in SkinEthic medium. The culture medium was then replaced with medium containing the test product (two epidermes per concentration tested), and then the epidermes were cultured for 24 hours at 37° C. and 5% CO2. A batch of 2 epidermes was not treated. The culture supernatants were then removed and the epidermes were rinsed with a PBS solution, cut and deposited in sterile RNA-free tubes in the presence of Tri-Reagent (Sigma T9424) and then immediately frozen at −80° C.\n(§2) The pairs of primers which were used in this study allow the amplification of the following specific fragments:\n(§3) The reverse transcription was carried out in the following manner: • extraction of the total RNA of each epidermis with the aid of Tri-Reagent according to the protocol recommended by the supplier, and then a new extraction with chloroform and precipitation with isopropanol. • removal of the traces of potentially contaminating DNA by treating with the DNA-free system (Ambion) • carrying out of the reaction of reverse transcription of the mRNA in the presence of the oligo(dT) primer and of the enzyme Superscript II (Gibco) • quantification, by fluorescence, of the synthesized cDNA and adjustment of the concentrations of 50 ng/ml.\n(§4) The PCR reactions (polymerase chain reactions) were carried out by quantitative PCR with the “Light cycler” system (Roche Molecular Systems Inc.) according to the procedures recommended by the supplier.\n(§5) The PCR conditions were the following: activation of 10 min at 95° C., PCR reactions (10 sec at 95° C., 5 sec at 64° C. and 35 sec at 72° C.) 40 cycles, fusion of 5 sec at 95° C. and then 5 sec at 60° C.\n(§6) The incorporation of fluorescence into the amplified DNA was measured continuously during the PCR cycles. This system makes it possible to obtain fluorescence measurement curves as a function of the PCR cycles and to thereby evaluate a relative expression value for each marker. The RE (relative expression) value is expressed in arbitrary units according to the following formula: (1/2^number of cycles)×10^6.\n(§7) The results were expressed relative to the quantity of actin messenger (reference gene) and are represented, per marker, in the following tables."}, "[2]": {"tested_on": "Loricrin (LORI) messenger", "assay": "Loricrin messenger expression by quantitative RT-PCR in reconstructed epidermis SkinEthic", "assay_type": "cell-based, human", "method": "as §1, §2, §3, §4, §5, §6, §7"}, "[3]": {"tested_on": "Transglutaminase 1 (TGK) messenger", "assay": "Transglutaminase I (TGK) messenger expression by quantitative RT-PCR in reconstructed epidermis SkinEthic", "assay_type": "cell-based, human", "method": "as §1, §2, §3, §4, §5, §6, §7"}, "epidermal keratinocyte": {"tested_on": "epidermal keratinocyte", "settings": "Nissen J B et al, Exp. Dermatol. 1997; cited from earlier work"}, "[4]": {"settings": "0.01 μM, 24 hours, control = 100"}}, "data": [{"substance": "β-Endorphin [Beta-endorphin]", "values": [{"measurement": "CLSP/actin", "setting": "[1]", "value": 0.0961}, {"measurement": "RE*CLSP (UA)", "setting": "[1]", "value": 0.1032, "unit": "UA"}, {"measurement": "RE*actin (UA)", "setting": "[1]; reference gene, CLSP table", "value": 1.07, "unit": "UA"}, {"measurement": "CLSP/actin % control", "setting": "[1]; control = 100", "value": 174, "unit": "%"}, {"measurement": "LORI/actin", "setting": "[2]; 0.01 μM, 24 hours", "value": 10.2}, {"measurement": "RE*LORI (UA)", "setting": "[2]; 0.01 μM, 24 hours", "value": 11.24, "unit": "UA"}, {"measurement": "RE*actin (UA)", "setting": "[2]; 0.01 μM, 24 hours, reference gene, loricrin table", "value": 1.11, "unit": "UA"}, {"measurement": "LORI/actin % control", "setting": "[2]; [4]", "value": 179, "unit": "%"}, {"measurement": "expression of the loricrin marker (in words)", "setting": "[2]; at physiological concentration", "value": "stimulate the expression"}, {"measurement": "RE*TGK (UA)", "setting": "[3]; 0.01 μM, 24 hours", "value": 0.165, "unit": "UA"}, {"measurement": "RE*actin (UA)", "setting": "[3]; 0.01 μM, 24 hours, reference gene, TGK table", "value": 1.11, "unit": "UA"}, {"measurement": "TGK/actin % control", "setting": "[3]; [4]", "value": 176, "unit": "%"}, {"measurement": "expression of the TGK messenger (in words)", "setting": "[3]; at physiological concentration", "value": "an effect of the same type, although slightly less pronounced"}, {"measurement": "effect on epidermal proliferation and differentiation", "setting": "epidermal keratinocyte", "value": "no effect"}]}]}
